AC50 data for 93 compounds are collected here from PubChem BioAssay AID449750 (Broad Institute, 2010).

Activity calls are given as the source filed them. How the calls were made is not given here.

The nature of the assay: non-covalent RecA intein splicing inhibitors, dose response, biochemical, cell-free, fluorescence, secondary screen (AID 449750).

As to `CCc1ccc(S(=O)(=O)Nc2ccc(O)c3ccccc23)cc1`, the AC50 is 0.535 µM.

Regarding `O=C(NCc1ccccc1)c1nc(S(=O)(=O)Cc2ccccc2)ncc1Cl`, the AC50 is > 38 µM (inactive). With `Cc1nn(-c2ccccc2)c(Cl)c1CN(C(=O)CCl)c1ccc(Cl)cc1`, the AC50 is 1.28 µM. The result for `O=C(O)c1ccc(NC2=C(Cl)C(=O)c3ccccc3C2=O)cc1` reads 3.91 µM; that for `COc1cccc(Nc2c([N+](=O)[O-])cncc2[N+](=O)[O-])c1`, > 38 µM (inactive). The result for `Cc1ccc(N2C(=O)C(Cl)=C(N3CCOCC3)C2=O)c(C)c1` reads > 38 µM (inactive). Consider `CS(=O)(=O)C1=NN2C(=N)/C(=C\c3ccc(OC(=O)c4ccco4)cc3)C(=O)N=C2S1`, for which the AC50 is > 38 µM (inactive). With `O=C(N/N=C\c1ccc(-c2ccccc2[N+](=O)[O-])o1)C1COc2ccccc2O1` (stereo not drawn) the figure was 8.06 µM.

Take `O=C(c1c[nH]c(C(=O)C(Cl)(Cl)Cl)c1)c1ccc(F)cc1Cl`: the AC50 was 30.1 µM.

Consider `Cc1ccsc1/C=N/NC(=O)Cc1cc(=O)[nH][nH]1`, for which the AC50 was 5.95 µM.

Take `FC(F)(F)c1nnc(-c2ccccc2)nc1Oc1ccc(Cl)cc1Cl`: the AC50 was > 38 µM (inactive). Take `Nc1c(O)cccc1C(=O)O`: the AC50 is 27.2 µM. The result for `COc1ccc2ccc3c(c2c1)N=C[C@]1(O3)N(C)c2ccccc2C1(C)C` reads > 38 µM (inactive); that for `CSc1nnc(NC(=O)c2nc(S(=O)(=O)Cc3ccccc3)ncc2Cl)s1`, > 38 µM (inactive); that for `Cc1ccc(S[C@@H](CCN2CC[C@H](C)CCC2=O)c2ccccc2)cc1`, 15.2 µM. For the compound `CCOC(=O)c1c(NC(=O)CCl)sc(CN(C)C)c1-c1ccccc1`, the AC50 is 20.4 µM. The result for `Cc1ccc(-n2nc(C)c3c2OC(N)=C(C#N)C3c2ccc(F)cc2)cc1` (stereo not drawn) reads 26.5 µM; that for `O=C1C(C2=C(O)c3ccccc3C2=O)=Nc2ccccc21`, 2.98 µM.

Take `Cc1cc(-c2[nH]nc3c2C(c2ccsc2)C(C#N)=C(N)O3)c(C)s1` (stereo not drawn): the AC50 is 13.6 µM. With `c1ccc(Nc2nc(NCc3ccco3)c3ccccc3n2)cc1` the figure was 10.8 µM; with `Cc1ccc(C)c(NC2=C(Cl)C(=O)OC2OC(=O)c2ccco2)c1` (stereo not drawn), > 38 µM (inactive); with `O=c1cc(-c2ccc(F)cc2)[nH][nH]1`, 17.2 µM. As to `CC(C)(C)c1cc(C(=O)CCN2CCOCC2)cc(C(C)(C)C)c1O`, the AC50 is 12.1 µM.

With `COc1cc(/C=C2/SC(=S)NC2=O)ccc1OS(=O)(=O)c1ccc(C)cc1`, the AC50 is 5.83 µM. With `O=C1C(Cl)=C(N2CCOCC2)C(=O)N1c1ccc(Br)cc1` the figure was > 38 µM (inactive); with `CC(C)(C)OC(=O)N1CC=C2C(C#N)=C(N)C(C#N)(C#N)C(c3cccs3)C2C1` (stereo not drawn), > 12 µM (inactive); with `Cc1ccc(S(=O)(=O)Nc2ccc(O)c3ccccc23)c(C)c1`, 0.409 µM.

For `Cc1ccc(C(=O)N/N=C\c2cc(Br)c(Br)o2)cn1`, the AC50 was 15.7 µM.

Turning to `COc1cc(C=C2C(=O)c3ccccc3C2=O)ccc1O`, the AC50 is > 38 µM (inactive).

Consider `COc1cccc(-n2nc(C#N)c(Cl)cc2=O)c1`, for which the AC50 was > 38 µM (inactive). With `Cc1nnc(N/N=C/c2cccc(OCc3ccc(Cl)c(Cl)c3)c2)n1N` the figure was 23.4 µM. Take `CCOC(=O)C1CCN(S(=O)(=O)c2c(Cl)ccc3nonc23)CC1`: the AC50 is 11.6 µM. With `O=C1C(Nc2ccccc2)=C/C(=N/S(=O)(=O)c2cccs2)c2ccccc21` the figure was 0.226 µM. With `COC(=O)C1CN(C#N)N(c2ccc(Cl)cc2)C12c1ccccc1-c1ccccc12` (stereo not drawn) the figure was 10.7 µM; with `Cc1nc(COC(=O)c2cc(O)c3ccccc3c2O)cs1`, 15.1 µM; with `O=c1c(Cl)c(NCCCO)cnn1-c1nc2ccccc2[nH]1`, > 38 µM (inactive).

As to `COc1ccc(/C=C/C(=O)c2ccccc2)cc1COc1ccc(F)cc1`, the AC50 was 2.18 µM.

As to `Cn1ccnc1Sc1cc(NCCCO)c([N+](=O)[O-])c2nonc12`, the AC50 is > 38 µM (inactive). `COc1ccc(COC(=O)N/N=C(\C)CC(=O)Nc2ccc(Cl)cn2)cc1`: the AC50 was > 38 µM (inactive). With `CC1=NN(c2ccc(F)cc2)C(=O)C1C(c1cccc(O)c1)c1c(C)[nH]n(-c2ccc(F)cc2)c1=O` (stereo not drawn) the figure was 2.89 µM; with `CC1=NNC(=O)C1C(c1cccc(O)c1)C(C#N)C#N` (stereo not drawn), > 38 µM (inactive). The result for `COc1ccccc1NC(=O)c1cnc(SCC(=O)NCC2CCCO2)n(C)c1=O` (stereo not drawn) reads > 38 µM (inactive); that for `CSc1nnc(NC(=O)c2nc(S(=O)(=O)Cc3ccccc3F)ncc2Cl)s1`, > 38 µM (inactive); that for `Cc1ccc(C2C(C#N)=C(N)Oc3n[nH]c(-c4cccs4)c32)cc1` (stereo not drawn), 15.3 µM. With `O=C(CCl)N1N=C(c2ccco2)CC1c1cccs1` (stereo not drawn) the figure was 6.09 µM; with `COc1ccc(Br)cc1[C@H]1[C@H]2C=CC[C@@H](C)[C@@H]2C(=O)N1Cc1ccccc1`, 14.4 µM; with `N#CCCn1[nH]c(-c2ccccc2)cc1=O`, 8.16 µM. As for `CC1CCCC(NC(=O)NC(=O)CCl)C1C` (stereo not drawn), the AC50 was 29.3 µM. With `CCc1ccc2c(c1)C(NC(C)=O)C(=O)N2CCN1CCOCC1` (stereo not drawn) the figure was 37 µM. With `Nc1cc2nn(-c3ccccc3)nc2cc1Cl` the figure was 7.05 µM; with `O=c1[nH]cc(N=Cc2cc([N+](=O)[O-])ccc2O)c(=O)[nH]1`, > 38 µM (inactive). As to `CCCc1[nH]nc2c1C(c1ccc(OC)c(CSC3=NCCS3)c1)C(C#N)=C(N)O2` (stereo not drawn), the AC50 was 18.5 µM. Consider `O=C1C(Cl)=C(NS(=O)(=O)c2ccc([N+](=O)[O-])cc2)C(=O)c2ccccc21`, for which the AC50 was 10.3 µM. Take `CCC(C)Nc1nc(Cl)nc(N(C#N)CN2C(=O)c3ccccc3S2(=O)=O)n1` (stereo not drawn): the AC50 was > 38 µM (inactive).

As for `COC(=O)c1c(C)oc2ccc(N(C(=O)c3ccncc3)S(=O)(=O)c3ccc4ccccc4c3)cc12`, the AC50 is > 38 µM (inactive). Regarding `O=C(Cc1cc(=O)[nH][nH]1)N/N=C/C=C/c1ccccc1`, the AC50 was 20.8 µM. With `Oc1[nH]c2ccccc2c1N=NC(=S)N1CCOCC1`, the AC50 was > 38 µM (inactive).

Regarding `CCOC(=O)Cc1[nH]nc2c1C(c1cccc(OC)c1OC)C(C#N)=C(N)O2` (stereo not drawn), the AC50 is 11.5 µM. `O=C(NCc1cccnc1)/C(=C\c1ccc(-c2ccc(Br)cc2)o1)S(=O)(=O)c1ccccc1`: the AC50 is 24.7 µM. The result for `CCOC(=O)c1c(C)[nH]c2c1-c1ccccc1C(=O)C2=O` reads 5.39 µM. With `CCN(c1ccccc1)c1cc2ccccc2c(=O)[nH]1`, the AC50 is > 38 µM (inactive).

On to `COc1ccccc1/C=C/C1(C(=O)NC2CCCC2)CC(=O)N1c1ccc(F)cc1` (stereo not drawn), for which the AC50 is 9.42 µM.

Regarding `COc1cc(/C=C2/C(=O)N(c3ccc(Br)cc3)N=C2C)cc(OC)c1OC`, the AC50 was 7.07 µM.

As to `O=C(O)/C=C/C(=O)Nc1ccc(SC(F)(F)C(F)(F)C(F)(F)F)cc1`, the AC50 is 7.99 µM. With `C#CCOc1ccc(OC)cc1C(c1c(C)[nH][nH]c1=O)c1c(C)[nH][nH]c1=O` the figure was 17.3 µM. Turning to `COc1ccc(/C=C2/SC(=S)N(CCCC(=O)Nc3cccc(O)c3)C2=O)cc1`, the AC50 is > 38 µM (inactive). With `O=C(NCc1cccnc1)/C(=C\c1ccc(-c2cccc(Cl)c2)o1)S(=O)(=O)c1ccccc1` the figure was 26.9 µM; with `COc1ccc(C2=NN(C(=O)/C=C/c3ccccc3)C(c3ccccc3)C2)c(OC(C)=O)c1` (stereo not drawn), 2.24 µM; with `Cc1[nH][nH]c(=O)c1C(c1ccc(-c2cccc(Cl)c2)o1)c1c(C)[nH][nH]c1=O`, > 38 µM (inactive).

Turning to `CCOC(=O)c1ccc(-n2[nH]c(-c3ccccc3)cc2=O)cc1`, the AC50 was 5.45 µM. As to `N=c1c2c(ncn1Cc1ccco1)Oc1ccc3ccccc3c1C2c1ccccc1` (stereo not drawn), the AC50 was 13.1 µM. With `O=C(Cc1cc(=O)[nH][nH]1)N/N=C/c1cccc(Cl)c1Cl` the figure was 20 µM; with `COC(=O)CC1(c2cccc3ccccc23)C(=O)c2ccccc2C1=O`, 19.1 µM; with `[O-][N+]1=c2ccc(Nc3ccccc3)cc2=NC12CCCCC2`, 16.7 µM. Take `Cc1cccc(C)c1-n1cccc1/C=C1\SC(=S)N(c2cccc(C(=O)O)c2)C1=O`: the AC50 was 7.18 µM. The result for `O=C(CCl)N1CCN2C(=O)c3ccccc3C12c1ccc(Cl)cc1` (stereo not drawn) reads 7.81 µM. With `Clc1ncnc2scc(C3COc4ccccc4O3)c12` (stereo not drawn), the AC50 was 7.28 µM. The result for `O=C(N/N=C/c1ccc([N+](=O)[O-])o1)c1ccccc1NS(=O)(=O)c1cccs1` reads > 38 µM (inactive); that for `O=C1C=C(N2CCOCC2)c2ccccc2C1=O`, 4.51 µM. Regarding `CC(=O)Nc1ccc(NC(=O)CSc2ncc(C(=O)Nc3ccccc3)c(=O)n2C)cc1`, the AC50 was 1.04 µM. The result for `CC1(C)C=C2C(=NN(c3ccccc3)C(N)=C2C#N)CO1` reads 3.43 µM.

For the compound `COc1nc(N/N=C/c2ccc(-c3ccccc3[N+](=O)[O-])o2)nc(N2CCOCC2)n1`, the AC50 was 23.2 µM. Consider `CCOC(=O)CSc1nc2sc3c(c2c(=O)n1C1CCCCC1)CCN(C)C3`, for which the AC50 is > 38 µM (inactive). With `COc1cccc(/C=C2\SC(=S)N(CCCC(=O)N(CCO)c3ccccc3)C2=O)c1` the figure was > 38 µM (inactive); with `CCOC(=O)Cc1c(C)c2c(C)[nH]nc2oc1=O`, > 38 µM (inactive); with `COc1cc(/C=C2\C(=O)N(c3ccc(S(N)(=O)=O)cc3)N=C2C)ccc1OC(=O)c1ccco1`, 21 µM. Consider `Cc1[nH]n(-c2ccccc2)c(=O)c1/C=N\NC(=O)C1COc2ccccc2O1` (stereo not drawn), for which the AC50 was 8.94 µM. The result for `CC1=NN(c2cccc(Cl)c2)C(=O)C12CC(C)=C(C)CS2` (stereo not drawn) reads 21.7 µM; that for `Cc1[nH]nc2c1C(c1ccc(-c3ccc(Cl)cc3)o1)C(C#N)=C(N)O2` (stereo not drawn), 39.1 µM; that for `CC(=O)Nc1ccc(NC(=O)CSc2ncc(C(=O)Nc3ccc(F)cc3)c(=O)n2C)cc1`, > 38 µM (inactive). Consider `Cc1cc(=O)n(-c2ccc(O)cc2)[nH]1`, for which the AC50 was 7.46 µM.

For the compound `CC1=NNC(=O)C1Cc1c(Cl)cccc1Cl` (stereo not drawn), the AC50 was > 38 µM (inactive). With `Cc1[nH]nc2c1C1(CCN(C(=O)c3ccccc3)CC1)C(C#N)=C(N)O2` the figure was > 38 µM (inactive).

Usually AC50 stands for the midpoint of the concentration-response curve, whichever way the signal moves.
